The subject of assay [1] is intracellular GSH in primary human T cells. In words: Quantification of cellular glutathione (GSH) levels. The settings on record: DMF 50 μM 2 h; BSO 2.5 mM 4 h. It is filed as cell-based. The protocol:
Primary human T cells (2.5 million cells/mL, 20 mL per condition) were treated as indicated, harvested by centrifugation (500 g, 8 min, 4° C.), and washed twice with PBS. To the cell pellet was added 75 μL of lysis buffer. […] Protein concentrations were adjusted to at least 5 mg/mL and the assay performed according to manufacturer's instructions (Sigma-Aldrich, CS 1020). Data represent mean±SE for two biological replicates.

Assay [2] concerns primary human T cells. In words: T cell activation markers CD25 and CD69 (flow cytometry). It is filed as cell-based. The settings on record: 2.5 mM, 8 h. On the procedure:
96-well plates were coated with anti-CD3 (1:200; BioXcell) and anti-CD28 (1:500; 302933; BioLegend) in PBS (100 μL/well) overnight at 4° C. The plates were then washed twice with PBS and to each well was added 500,000 primary T cells in 100 μL of RPMI supplemented with 10% FBS, glutamine, and Pen-Strep. Cells were then treated with 100 μL of media containing compound at the indicated concentrations (final well volume of 200 μL). Cells were left at 37° C. in a 5% CO2 incubator for the indicated periods of time and harvested by centrifugation (500 g, 8 min, 4° C.), followed by washing with PBS.
Flow cytometry analysis of cell surface antigens was performed with the following antibodies: Pacific Blue-conjugated anti-CD8 (1:25 dilution; clone RPA-T8; BD Biosciences), APC-conjugated anti-CD4 (1:25 dilution; clone RPA-T4; eBioscience), phycoerythrin-conjugated anti-CD25 (1:25 dilution; clone BC96; eBioscience or PC61; BioLegend (PKCθ studies)), FITC-conjugated anti-CD69 (1:25 dilution; clone FN50; eBioscience). All antibodies were diluted in 1% FBS in PBS, and 50 μL of the stain solution was added to each well. […] Flow cytometry acquisition was performed with BD FACSDivam-driven BD™ LSR II flow cytometer (Becton, Dickinson and Company). Data was then analyzed with FlowJo software (Treestar Inc.). Data represent mean±SE for four-five experiments per group.
A general note: A flow cytometer gives signals particle by particle.

For assay [3], the system named is Cys residues in primary human T cells. In words: isoTOP-ABPP of compound-treated primary human T cells. In kind it is cell-based. The settings on record: MMF 50 μM 4 h; BSO 2.5 mM 4 h.
In assay [4] the test system is IMPDH2 (C140). In words: Click probe 18 labeling of recombinant IMPDH2 and its competition. The conditions noted are these: probe 25 μM. In kind it is binding, human.
In assay [5] the test system is protein targets in MDA-MB-231 cells. In words: Whole protein capture with click probes (SILAC proteomics), native vs heat denatured. In kind it is binding, human. The settings on record: proteins liganded by parent fragment (3 / 14) and enriched by click probe (19 / 18). On the procedure:
Protein enrichment by 18 and 19 was measured by whole protein capture of isotopically-SILAC labeled MDA-MB-231 cells using quantitative (SILAC) proteomics.

For the compound `CCCCS(=N)(=O)CCC(N)C(=O)O` (centres unmarked) [BSO, buthionine sulfoximine], in assay [1], the “cellular GSH content” value was “Significant reductions”. Also, in assay [2], the “T cell activation (CD25)” value was “no effect”. Also, the “alteration of the ~40 DMF-sensitive Cys residues” value in assay [3] is “none”.
On to `C#CCCCCNC(=O)c1cc(NC(=O)C=C)cc(C(F)(F)F)c1` [compound 18], for which, in assay [4], the “direct labeling of IMPDH2 WT and mutants by click probe” value was “labeled WT-IMPDH2 and a C331S-IMPDH2 mutant, but not the C140S or C140S/C331S mutants”. The “percentage of quantified protein targets sensitive to heat denaturation” value in assay [5] amounted to 73%.

The values are drawn from US10670605B2, “Cysteine reactive probes and uses thereof” (The Scripps Research Institute, priority 2015, dated 2020).
